Several values for one entry are separate records, joined by “and”; a condition that tells them apart may be missing. Equal entries are not always repeated. Entries after “also recorded” stand apart in the source; their conditions may differ.
Assays:
HBC-5 = assay: cells; design: species or system JFCR39 human cancer cell lines; JFCR39 panel growth inhibition, sulforhodamine B total protein after 48 h; details: for GI50: HBC5, 48 h
Summary of the method: (§1)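 Cells are grown in kanamycin-supplemented RPMI-1640 with 5% FBS (37°C, humidified 5% CO2), then treated with compound for 48 hours. Antiproliferative effect is scored by sulforhodamine B protein staining and expressed as GI50, duplicate determinations.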

SNB-78 = assay: cells; design: species or system JFCR39 human cancer cell lines; JFCR39 panel growth inhibition, sulforhodamine B total protein after 48 h; details: for GI50: Homo sapiens, SNB-78, 48 h
Summary of the method: as §1

St-4 = assay: cells; design: species or system JFCR39 human cancer cell lines; JFCR39 panel growth inhibition, sulforhodamine B total protein after 48 h; details: for GI50: Homo sapiens, St-4, 48 h
Summary of the method: as §1

SNB-75 = assay: cells; design: species or system JFCR39 human cancer cell lines; JFCR39 panel growth inhibition, sulforhodamine B total protein after 48 h; details: for GI50: Homo sapiens, SNB-75, 48 h
Summary of the method: as §1

DMS273 = assay: cells; design: species or system JFCR39 human cancer cell lines; JFCR39 panel growth inhibition, sulforhodamine B total protein after 48 h; details: for GI50: Homo sapiens, DMS-273, 48 h; for Log GI50: 48 h, inhibitor, Log GI50, 48 h
Summary of the method: as §1

NCI-H522 = assay: cells; design: species or system JFCR39 human cancer cell lines; JFCR39 panel growth inhibition, sulforhodamine B total protein after 48 h; details: for GI50: Homo sapiens, NCI-H522, 48 h
Summary of the method: as §1

MDA-MB-231 = assay: cells; design: species or system JFCR39 human cancer cell lines; JFCR39 panel growth inhibition, sulforhodamine B total protein after 48 h; details: for GI50: Homo sapiens, MDA-MB-231, 48 h
Summary of the method: as §1

HCC2998 = assay: cells; design: species or system JFCR39 human cancer cell lines; JFCR39 panel growth inhibition, sulforhodamine B total protein after 48 h; details: for GI50: Homo sapiens, HCC 2998, 48 h
Summary of the method: as §1

RXF-631L = assay: cells; design: species or system JFCR39 human cancer cell lines; JFCR39 panel growth inhibition, sulforhodamine B total protein after 48 h; details: 48 h; for GI50: RXF-631L
Summary of the method: as §1

[1] = tested on: hepatitis B virus (HBV), measles virus (MV), Epstein-Barr virus (EBV), herpes simplex virus (HSV); assay: preliminary anti-viral screening (other viruses); type: cell-based
Text: We examined the inhibitory activities of DDPs against various species of bacteria (both gram-negative and gram-positive bacteria), fungi and viruses. […] In contrast, preliminary screening of the DDPs for anti-viral agents with hepatitis B virus (HBV), measles virus (MV), Epstein-Barr virus (EBV), herpes simplex virus (HSV) and human immunodeficiency virus-1 (HIV-1) indicated their selective inhibition of HIV.

MCF-7 cells = assay: mammosphere formation assay; type: cell-based, human; details: MCF-7, 5 μM; for MFE (%) ave / MFE (control = 1) ave / MFE (%): 7 days; for MFE (%) ave: mean of 3, control 0.87; for MFE (control = 1) ave: relative to control = 1; for MFE (%): single replicates
Experimental: We also evaluated antiproliferative activity against cancer stem cells (CSCs), which are a small sub-population in tumour bulk identified in most cancer cells and clinical samples[52]. CSCs have been a major problem in cancer therapy because they are responsible for recurrence, metastasis and drug resistance to chemotherapeutic agents that affect proliferative cells[53]–[56]. Anti-CSC activity was evaluated by the inhibition of sphere-forming ability, a well-studied method to enrich the CSC-like population, and selective cytotoxicity against one of the most reliable CSC markers, aldehyde dehydrogenase (ALDH)-positive cells. […] Low-toxicity 16 was also added as a negative control. […] We next evaluated the three DDPs that inhibited mammosphere formations against ALDH-positive cells, a functional marker for breast CSCs. MCF-7 cells were treated with 1 μM of 11, 12 or 22, and the ALDH-positive cell population was analysed by using a fluorescence activated cell sorter (Supplementary Fig. 46b). […] Thus, for the first time, we successfully found DDPs with potent antiproliferative effects on the CSC-like population in MCF-7 cells, which may lead to new anti-CSC drugs.
Fig. 5 DDPs show anti-CSC activity in breast cancer cell line MCF-7. a Effect of DDPs on mammosphere formation. After the cells were cultured in the presence of 5 μM DDPs for 7 days, the number of mammospheres was microscopically counted and the percentage of mammosphere-forming cells was determined as mammosphere-forming efficiency (MFE; %). Data represent mean ± s.d. from three independent replicate experiments. P-values were calculated by a two-sided unpaired Student’s t-test, compared with control. b Micrographs show representative images of mammosphere formation from three independent replicate experiments using compound 11, 12, 16, 22. The scale bar, […]. c Effect of DDPs (1 μM, 3 days) on ALDH-positive cells in MCF-7 cells. Data represent mean ± s.d. from three independent replicate experiments. P-values were calculated by a two-sided unpaired Student’s t-test, compared with control. d Dose-dependent effect of compound 12 on ALDH-positive cells in MCF-7 cells. Data represent mean ± s.d. from three independent replicate experiments. P-values were calculated by a two-sided unpaired Student’s t-test. Source data underlying Fig. 5a, c, d are provided in a Source Data file.

[2] = 48 h, inhibitor, Log GI50, 48 h

| Structure (SMILES) | GI50 (HBC-5) [µM] | GI50 (SNB-78) [µM] | GI50 (St-4) [µM] | GI50 (SNB-75) [µM] | GI50 (DMS273) [nM] | GI50 (NCI-H522) [µM] | GI50 (MDA-MB-231) [µM] | GI50 (HCC2998) [µM] | GI50 (RXF-631L) [µM] | effect on other viruses [1] | MFE (%) ave (MCF-7 cells) [%] | MFE (control = 1) ave (MCF-7 cells) | MFE (%) (MCF-7 cells) | other results |
| --- | --- | --- | --- | --- | --- | --- | --- | --- | --- | --- | --- | --- | --- | --- |
| C=C1CCC2C(C)(CC(=O)C=C(C)C)C(O)CCC2(C)C1Cc1c(OC)oc(CO)c(C)c1=O (centres unmarked) [Compound 19] | 31.6 | 36.2 | 75.3 | 53.8 | 9980 | 12.4 |  |  |  |  |  |  |  |  |
| C=C1CC[C@@H]2[C@](C)(CC[C@H]3O[C@H](C=C(C)C)C[C@@]23C)[C@@H]1Cc1c(OC)oc(CO)c(C(=O)OC)c1=O [Compound 21] | 14.7 | 18.7 | 20 | 17.8 | 16600 | 8.73 | 17.8 | 18.2 | 17.3 |  |  |  |  |  |
| C=C1CC[C@@H]2[C@](C)(CC[C@H]3O[C@H](C=C(C)C)C[C@@]23C)[C@@H]1Cc1c(O)c(C)c(C)oc1=O [Compound 10, higginsianin A] |  |  |  |  |  |  |  |  |  | without affecting other viruses |  |  |  |  |
| C=C1CCC2C(C)(CCC=C(C)C)C(O)CCC2(C)C1Cc1c(OC)oc(CO)c(C(=O)OC)c1=O (centres unmarked) [Compound 13] | 15.1 | 17.3 | 21.9 | 18.8 | 16300 | 6.85 | 19.6 | 17.7 | 16.8 |  |  |  |  |  |
| C=C1CC[C@@H]2[C@](C)(CC[C@H]3O[C@H](C=C(C)C)C[C@@]23C)[C@@H]1Cc1c(OC)oc(C)c(C)c1=O [Compound 22, O-methylated higginsianin A] | 7.06 | 9.75 | 11 | 10 | 224 | 0.478 |  | 8.85 | 8.05 |  | 0.41 | 0.47 | 0.40% and 0.42% | effect on sphere formation (MCF-7 cells): clearly inhibited sphere formation |
| C=C1CCC2C(C)(CCC=C(C)C)C(O)CCC2(C)C1Cc1c(OC)oc(CO)c(C)c1=O (centres unmarked) [Compound 12] | 8.73 | 13.3 | 14.1 | 18.4 |  | 1.46 | 13.5 | 15.7 | 16.1 | without affecting other viruses | 0.21 | 0.24 | 0.18% and 0.21% and 0.23% | effect on sphere formation (MCF-7 cells): clearly inhibited sphere formation; also recorded: strongest effect on sphere formation; Log GI50 (DMS273): -7.063 M |
| C=C1CCC2C(C)(CCC=C(C)C)C(O)CCC2(C)C1Cc1c(OC)oc(C)c(C)c1=O (centres unmarked) [Compound 11] | 13.9 | 21.9 | 24.9 | 27.8 | 199 | 1.95 | 22.6 | 36.7 | 19.3 | without affecting other viruses | 0.46 | 0.53 | 0.47% and 0.44% | effect on sphere formation (MCF-7 cells): clearly inhibited sphere formation |
| C=C1CC[C@H]2[C@]3(C)C[C@@H](C=C(C)C)O[C@H]3CC[C@]2(C)[C@@H]1Cc1c(O)c(C)c(C)oc1=O [Compound 5, subglutinol A] |  |  |  |  |  |  |  |  |  | without affecting other viruses | 1.13 | 1.30 | 1.04% and 1.24% and 1.10% |  |
| C=C1CC[C@H]2[C@]3(C)C[C@@H](C=C(C)C)O[C@H]3CC[C@]2(C)[C@@H]1Cc1c(OC)oc(CO)c(C)c1=O [Compound 17] | 11.8 | 14.2 | 15.2 | 16.9 | 713 | 10.5 | 13.9 | 14 | 14.4 | without affecting other viruses | 0.65 | 0.75 | 0.66% and 0.68% and 0.60% |  |
| C=C1CCC2C(C)(CCC=C(C)C)C(O)CCC2(C)C1Cc1c(OC)oc(CO)c(C)c1=O (centres unmarked) [Compound 16] |  |  |  |  |  |  |  |  |  |  | 0.87 | 1.00 | 0.62% and 1.01% and 0.96% | effect on sphere formation (MCF-7 cells): did not affect sphere formation; Log GI50 (MDA-MB-231; [2]): -4.882 M; Log GI50 (HBC-5; [2]): -4.986 M; Log GI50 (SNB-78; [2]): -4.939 M; Log GI50 (HCC2998; [2]): -4.871 M; Log GI50 (RXF-631L; inhibitor, Log GI50, 48 h): -4.839 M; Log GI50 (St-4; [2]): -4.853 M; Log GI50 (SNB-75; [2]): -4.827 M; Log GI50 (DMS273): -5.822 M; Log GI50 (NCI-H522; [2]): -5.659 M |
| C=C1CC[C@H]2[C@]3(C)C[C@H](C=C(C)C)O[C@H]3CC[C@]2(C)[C@@H]1Cc1c(OC)oc(CO)c(C)c1=O [Compound 18] |  |  |  |  |  |  |  |  |  | without affecting other viruses | 0.64 | 0.74 | 0.66% and 0.58% and 0.68% |  |
| C=C1CCC2C(C)(CCC=C(C)C)C(O)CCC2(C)C1Cc1c(OC)oc(C)c(C(=O)OC)c1=O (centres unmarked) [Compound 14] | 12.1 | 14.7 | 14.6 | 20.1 | 289 | 1.54 | 13.2 | 16.7 | 14.5 | without affecting other viruses |  |  |  |  |
| C=C1CCC2C3(C)CC(C=C(C)C)OC3CCC2(C)C1Cc1c(OC)oc(C)c(C)c1=O (centres unmarked) [Compound 23] |  |  |  |  |  |  |  |  |  | without affecting other viruses | 0.66 | 0.76 | 0.60% and 0.72% and 0.66% |  |
| C=C1CCC2C(C)(CC(=O)C=C(C)C)C(O)CCC2(C)C1Cc1c(O)c(C)c(C)oc1=O (centres unmarked) [Compound 7] | 32.5 |  | 69.2 |  | 14100 |  | 58.3 |  | 65.9 |  |  |  |  |  |
| C=C1CC[C@@H]2[C@](C)(CC[C@H]3O[C@H](C=C(C)C)C[C@@]23C)[C@@H]1Cc1c(OC)oc(CO)c(C)c1=O [Compound 20] | 12.4 | 14 | 14.3 | 16.4 | 89.3 |  | 13.1 | 15.9 | 17 | without affecting other viruses | 0.77 | 0.89 | 0.76% and 0.80% |  |
| C=C1CC[C@H]2[C@]3(C)C[C@H](C=C(C)C)O[C@H]3CC[C@]2(C)[C@@H]1Cc1c(OC)oc(C)c(C)c1=O [Compound 24] |  |  |  |  |  |  |  |  |  | without affecting other viruses |  |  |  |  |

From PMC7156458, “Synthetic biology based construction of biological activity-related library of fungal decalin-containing diterpenoid pyrones” (Nature Communications, 2020)
